From patent US12721800B2, “Phosphonates and N-halamines compositions for tartar removal” (O.Y.M. INNOVATION LTD., priority 2021, dated 2026)

Key:
[1] = Effect of SUTP, poly(StBP) NPs and γ-Glu-BP on human teeth (incubation, brushing, overnight re-incubation); conditions: for precipitate of tartar during incubation: 1 mg/ml aqueous solution, 4 ml, pH=4, RT, after 15 min of incubation; for cleaning of teeth from tartar (photographs): 1 mg/ml, pH=4, RT 1 hr, brushing, new solution overnight, washed with DDW
Protocol: The effect of SUTP (Example 1), poly(StBP) NPs (Example 4), and γ-Glu-BP (Example 2) on human teeth was evaluated as followed:
Teeth were incubated in three separate aqueous solutions of: SUTP, poly(StBP) NPs, and γ-Glu-BP (1 mg/ml, 4 ml, pH=4) at RT for 1 hr. […] The teeth were then brushed by a toothbrush to remove the remain tartar layer on the teeth and were incubated in new solutions of SUTP, poly(StBP) NPs, and γ-Glu-BP overnight. Then, the teeth were washed by DDW and were photographed.

[2] = Effect of halamine NPs and SUTP on mature tartar removal on human teeth (10 min stirring, then brushing)
Protocol: The effect of halamines nanoparticles (as presented in Table 1) and SUTP compounds on mature tartar removal on human teeth were studied. 5 mL of each aqueous suspension were added to a 20 mL vial, and a tooth with tartar was added to each vial. Then, the solutions were stirred for 10 min at room temperature. After 10 minutes the teeth were brushed using a soft toothbrush and a photo of the tooth were taken.

[3] = Comparison of succinyl tetraphosphonate and two industrial pyrophosphates on human teeth having mature tartar; conditions: for mature tartar removal (images before and after treatment): 1 mg/ml in PBS, pH=7, 5 ml, shaken 10 min, then brushed 2 min
Protocol: The effect of succinyl tetraphosphonate and two types of industrial pyrophosphates on human teeth having mature tartar as were evaluated as followed:
Human teeth were incubated and shaken in 5 ml solution of PBS with SUTP ((a) see structure below), sodium pyrophosphate tetrabasic ((b) see structure below) and sodium pyrophosphate dibasic ((c) see structure below) (1 mg/ml, pH=7) for 10 min. Then, the teeth were brushed by a toothbrush for 2 min. Images were captured before and after treatment FIG. 6 (with SUTP), FIG. 7 (with sodium pyrophosphate tetrabasic), and FIG. 8 (with sodium pyrophosphate dibasic).

## O=P(O)(O)C(O)(CCC(O)(P(=O)(O)O)P(=O)(O)O)P(=O)(O)O [SUTP, Succinyl tetra phosphonate]
[1]
  precipitate of tartar during incubation: a new precipitate of tartar was observed spontaneously
  cleaning of teeth from tartar (photographs): cleaning of dirty teeth from tartar
[2]; 1 mg/mL, pH 3-4, 10 min stirring and brushing
  tartar removal from tooth: partially clean
[2]; 1 mg/mL, pH 6-7, 10 min stirring and brushing
  tartar removal from tooth: partially clean
[2]; 10 mg/mL, pH 3-4, 10 min stirring and brushing
  tartar removal from tooth: completely clean
[3]
  mature tartar removal (images before and after treatment): a significant mature tartar was removed
[3]; 1 mg/ml, solution captured after teeth brushing
  cloudiness of the solution after the teeth brushing (tartar removed from the teeth): significantly cloudier than the others

## O=P([O-])(O)OP(=O)([O-])O.[Na+].[Na+] [Sodium pyrophosphate dibasic, sodium pyrophosphate dibasic, reference compound]
[3]
  mature tartar removal (images before and after treatment): did not remove the mature tartar

## O=P([O-])([O-])OP(=O)([O-])[O-].[Na+].[Na+].[Na+].[Na+] [Sodium pyrophosphate tetrabasic, sodium pyrophosphate tetrabasic, reference compound]
[3]
  mature tartar removal (images before and after treatment): did not remove the mature tartar

## NC(CCC(O)(P(=O)(O)O)P(=O)(O)O)C(=O)O (centres unmarked) [γ-Glu-BP]
[1]
  precipitate of tartar during incubation: a new precipitate of tartar was observed spontaneously
  cleaning of teeth from tartar (photographs): cleaning of dirty teeth from tartar
